From patent US7351728B2, “Oxazolyl-aryloxyacetic acid derivatives and their use as PPAR agonists” (Eli Lilly and Company, priority 2003, dated 2008) come the findings set out here.

For data set [1], the system named is HuapoAI transgenic mice. Kind of data set: Evaluation of triglyceride and cholesterol level in HuapoAI transgenic mice. Type of data set: in vivo. Conditions: Mus musculus, 168 h, 30 mg/kg daily oral gavage 7 days. On the procedure:
Five to six week old male mice, transgenic for human apoAI [C57Bl/6-tgn(apoa1)lrub, Jackson Laboratory, Bar Harbor, Me.] were housed five per cage (10″×20″×8″ with aspen chip bedding) with food (Purina 5001) and water available at all times. After an acclimation period of 2 weeks, animals were individually identified by ear notches, weighed, and assigned to groups based on body weight. Beginning the following morning, mice were dosed daily by oral gavage for 7 days using a 20 gauge, 1½″ curved disposable feeding needle (Popper & Sons). Treatments were test compounds (30 mg/kg), a positive control (fenofibrate, 100 mg/kg) or vehicle [1% carboxymethylcellulose (w/v)/0.25% Tween80 (w/v); 0.2 ml/mouse]. Prior to termination on day 7, mice were weighed and dosed. Three hours after dosing, animals were anesthetized by inhalation of isoflurane (2-4%; Abbott Laboratories, Chicago, Ill.) and blood obtained via cardiac puncture (0.7-1.0 ml). Whole blood was transferred to serum separator tubes (Vacutainer SST), chilled on ice, and permitted to clot. Serum was obtained after centrifugation at 4° C. and frozen until analysis for triglycerides, total cholesterol, compound levels, and serum lipoprotein profile by fast protein liquid chromatography (FPLC) coupled to an inline detection system. After sacrifice by cervical dislocation, the liver, heart and epididymal fat pads were excised and weighed.
The animals dosed with vehicle had average triglycerides values of 60-80 mg/dl, which were reduced by the positive control fenofibrate (33-58 mg/dl with a mean reduction of 37%). The animals dosed with vehicle had average total serum cholesterol values of 140-180 mg/dl, which were increased by fenofibrate (190-280 mg/dl, with a mean elevation of 41%). […] Fenofibrate increased the amount of HDLc (68-96 v-sec with a mean percent increase of 48%).
Glucose was measured colorimetrically using commercially purchased reagents (Sigma #315-500). According to the manufacturers, the procedures were modified from published work (McGowan, M. W., Artiss, J. D., Strandbergh, D. R. & Zak, B. Clin Chem, 20:470-5 (1974) and Keston, A. Specific colorimetric enzymatic analytical reagents for glucose. Abstract of papers 129th Meeting ACS, 31C (1956).); and depend on the release of a mole of hydrogen peroxide for each mole of analyte, coupled with a color reaction first described by Trinder (Trinder, P. Determination of glucose in blood using glucose oxidase with an alternative oxygen acceptor. Ann Clin Biochem, 6:24 (1969)). The absorbance of the dye produced is linearly related to the analyte in the sample. The assays were further modified in our laboratory for use in a 96 well format. Standards (Sigma #339-11, Sigma #16-11, and Sigma #CC0534 for glucose triglycerides and total cholesterol, respectively), quality control plasma (Sigma # A2034), and samples (2 or 5 μl/well) were measured in duplicate using 200 μl of reagent. An additional aliquot of sample, pipetted to a third well and diluted in 200 μl water, provided a blank for each specimen. Plates were incubated at room temperature (18, 15, and 10 minutes for glucose, triglycerides and total cholesterol, respectively) on a plate shaker (DPC Micormix 5) and absorbance read at 500 nm (glucose and total cholesterol) or 540 nm (triglycerides) on a plate reader (Wallac Victor 1420). Sample absorbances were compared to a standard curve (100-800, 10-500, and 100-400 mg/dl for glucose, triglycerides and total cholesterol, respectively). Values for the quality control sample were always within the expected range and the coefficient of variation for samples was below 10%. All samples from an experiment were assayed at the same time to minimize inter-assay variability.
Serum lipoproteins were separated and cholesterol quantitated with an in-line detection system. Sample was applied to a Superose® 6 HR 10/30 size exclusion column (Amersham Pharmacia Biotech) and eluted with phosphate buffered saline-EDTA at 0.5 ml/min. […]

The structures appear in SMILES notation.

Compound `CC(C)(Oc1ccc(OCCc2coc(-c3ccccc3)n2)cc1)C(=O)[O-].[Na+]` [Example 3, Sodium 2-methyl-2-{4-[2-(2-phenyloxazol-4-yl)ethoxy]phenoxy}propionate] had a melting point of 199 to 200 °C. In addition, the change in vivo at 30 mg/kg in data set [1] (percent increase in FPLC HDLc area under the curve) stood at 63%. Moreover, in data set [1] (serum, male human apoAI transgenic mice, read-out: % Triglyceride Reduction), the inhibition in vivo at 30 mg/kg was determined as 66%. On to `Cc1sc(-c2ccccc2)nc1CCOc1ccc(OC(C)(C)C(=O)O)cc1` [Example 35, 2-Methyl-2-{4-[2-(5-methyl-2-phenyl-thiazol-4-yl)-ethoxy]phenoxy}-2-methyl-propionic acid], for which the melting point worked out at 163.5 °C. `C#Cc1cccc(-c2nc(CCOc3ccc(OC(C)(C)C(=O)O)cc3)c(C)o2)c1` [Example 10, 2-(4-{2-[2-(3-Ethynylphenyl)-5-methyloxazol-4-yl]ethoxy}phenoxy)-2-methylpropionic acid] returned a melting point of 131 to 134 °C. Consider `Cc1cc(OCCc2nc(-c3ccccc3)oc2C)ccc1OCC(=O)O` [Example 25, {2-Methyl-4-[2-(5-methyl-2-phenyloxazol-4-yl)ethoxy]phenoxy}acetic acid], for which the melting point was found to be 133 °C. Turning to `Cc1oc(-c2ccccc2)nc1COc1ccc(OC(C)(C)C(=O)O)cc1` [Example 4, 2-Methyl-2-[4-(5-methyl-2-phenyloxazol-4-ylmethoxy)phenoxy]propionic acid], the melting point is 136 to 138 °C. Same read-out and setting: under `C=Cc1cccc(-c2nc(CCOc3ccc(OC(C)(C)C(=O)O)cc3)c(C)o2)c1` [Example 10A, 2-Methyl-2-(4-{2-[5-methyl-2-(3-vinylphenyl)oxazol-4-yl]ethoxy}phenoxy)propionic acid] stands 137 to 139 °C; under `C#Cc1ccc(-c2nc(CCOc3ccc(OC(C)(C)C(=O)O)cc3)c(C)o2)cc1` [Example 11, 2-(4-{2-[2-(4-Ethynylphenyl)-5-methyloxazol-4-yl]ethoxy}phenoxy)-2-methylpropionic acid], 137 to 139 °C. `Cc1oc(-c2ccccc2)nc1CCOc1cccc(OC(C)(C)C(=O)O)c1` [Example 23, 2-methyl-2-{3-[2-(5-methyl-2-phenyloxazol-4-yl)ethoxy]phenoxy}propionic acid] showed a melting point of 140 to 141 °C.
